These are literature values, as cited in patent publication US20110130434A1, “MODIFIED RELEASE RAMIPRIL COMPOSITIONS AND USES THEREOF” (Panacea Biotec Ltd., priority 2008, published 2011).

Molecules are shown by their SMILES.

For data set [1] the following is noted: after oral administration of ramipril.
A further data set deals with ACE (Homo sapiens, UniProt P12821).
Sequence of ACE (P12821 30-1306, species assumed): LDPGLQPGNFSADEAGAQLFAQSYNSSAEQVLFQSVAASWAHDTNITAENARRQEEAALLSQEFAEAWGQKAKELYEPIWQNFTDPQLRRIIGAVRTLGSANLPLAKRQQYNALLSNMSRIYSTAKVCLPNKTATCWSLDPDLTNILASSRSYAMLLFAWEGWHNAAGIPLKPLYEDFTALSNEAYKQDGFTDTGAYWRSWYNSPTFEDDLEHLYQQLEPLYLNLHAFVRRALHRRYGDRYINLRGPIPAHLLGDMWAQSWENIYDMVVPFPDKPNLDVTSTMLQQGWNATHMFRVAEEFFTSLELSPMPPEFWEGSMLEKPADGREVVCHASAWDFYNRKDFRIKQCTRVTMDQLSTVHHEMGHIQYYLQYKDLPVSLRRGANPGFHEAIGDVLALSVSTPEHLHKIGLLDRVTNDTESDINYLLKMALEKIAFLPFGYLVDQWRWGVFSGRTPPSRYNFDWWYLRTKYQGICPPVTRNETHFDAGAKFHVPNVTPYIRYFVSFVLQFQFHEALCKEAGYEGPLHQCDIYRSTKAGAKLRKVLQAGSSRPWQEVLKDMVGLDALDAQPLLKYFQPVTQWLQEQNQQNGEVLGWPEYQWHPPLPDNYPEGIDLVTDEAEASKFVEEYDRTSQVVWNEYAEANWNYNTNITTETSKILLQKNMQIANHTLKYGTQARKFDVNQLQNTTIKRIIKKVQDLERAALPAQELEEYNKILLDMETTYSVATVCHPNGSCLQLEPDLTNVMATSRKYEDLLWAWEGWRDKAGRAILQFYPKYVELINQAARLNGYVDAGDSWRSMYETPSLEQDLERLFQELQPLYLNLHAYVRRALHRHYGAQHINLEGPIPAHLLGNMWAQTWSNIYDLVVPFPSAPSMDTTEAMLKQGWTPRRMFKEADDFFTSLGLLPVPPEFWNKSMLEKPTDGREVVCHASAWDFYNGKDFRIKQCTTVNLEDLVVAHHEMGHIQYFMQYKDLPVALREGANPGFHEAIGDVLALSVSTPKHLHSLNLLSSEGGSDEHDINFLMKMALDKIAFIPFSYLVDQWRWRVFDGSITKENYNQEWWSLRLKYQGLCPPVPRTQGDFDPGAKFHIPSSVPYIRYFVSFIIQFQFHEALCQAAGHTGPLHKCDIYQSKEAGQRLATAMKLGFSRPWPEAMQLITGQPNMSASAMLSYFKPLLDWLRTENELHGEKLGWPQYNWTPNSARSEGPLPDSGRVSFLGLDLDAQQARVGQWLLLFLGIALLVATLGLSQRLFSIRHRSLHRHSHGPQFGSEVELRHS

Turning to `C[C@H](N[C@@H](CCc1ccccc1)C(=O)O)C(=O)N1[C@H](C(=O)O)C[C@@H]2CCC[C@@H]21` [ramiprilat], in data set [1], the half life was 13 to 17 h. Moreover, the “ACE inhibitory activity relative to ramipril” value at ACE is on record as 6 times.
